Laboratory results: US8404708B2, “Dual NK1/NK3 receptor antagonists” (Hoffmann-La Roche Inc., priority 2004, dated 2013)

How the values were obtained:
human NK1 receptor = human NK1 receptor (Homo sapiens, UniProt P25103); experiment: NK1 receptor binding, [3H]substance P displacement, CHO cell membranes; conditions: first value of the cell pKi NK1/NK3; human NK1 receptor, [3H]substance P
[1] = biological target: T1, Recombinant human NK3 (hNK3) receptor (Homo sapiens, UniProt P29371); experiment: NK3 receptor binding, [3H]SR142801 displacement, membrane preparations; conditions: second value of the cell pKi NK1/NK3; hNK3 receptor, [3H]SR142801
T1 construct: expressed in transfected cells
T1 sequence (P29371 1-465): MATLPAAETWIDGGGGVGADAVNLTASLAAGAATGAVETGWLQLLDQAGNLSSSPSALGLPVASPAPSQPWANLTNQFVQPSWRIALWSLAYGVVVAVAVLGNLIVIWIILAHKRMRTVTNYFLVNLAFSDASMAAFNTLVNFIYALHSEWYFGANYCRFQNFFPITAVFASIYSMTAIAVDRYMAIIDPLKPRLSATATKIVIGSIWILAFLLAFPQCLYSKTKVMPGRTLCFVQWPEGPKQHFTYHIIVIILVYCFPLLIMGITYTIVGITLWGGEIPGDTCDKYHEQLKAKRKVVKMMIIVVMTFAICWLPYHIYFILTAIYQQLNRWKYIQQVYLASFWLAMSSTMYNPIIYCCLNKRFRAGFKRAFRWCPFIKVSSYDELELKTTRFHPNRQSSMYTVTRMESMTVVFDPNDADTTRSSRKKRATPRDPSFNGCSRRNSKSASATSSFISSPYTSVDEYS
How it was run: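 Incubation ran 90 min at room temperature in 50 mM Tris-HCl pH 7.4 with 0.1% BSA, 4 mM MnCl2 and 1 μM phosphoramidon, using about 2.5 μg hNK3 membrane protein per well. Nonspecific binding was defined with 10 μM SB222200, and bound radioactivity was collected on PEI-soaked GF/C filters for scintillation counting.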

Chain of human NK1 receptor (P25103 whole entry): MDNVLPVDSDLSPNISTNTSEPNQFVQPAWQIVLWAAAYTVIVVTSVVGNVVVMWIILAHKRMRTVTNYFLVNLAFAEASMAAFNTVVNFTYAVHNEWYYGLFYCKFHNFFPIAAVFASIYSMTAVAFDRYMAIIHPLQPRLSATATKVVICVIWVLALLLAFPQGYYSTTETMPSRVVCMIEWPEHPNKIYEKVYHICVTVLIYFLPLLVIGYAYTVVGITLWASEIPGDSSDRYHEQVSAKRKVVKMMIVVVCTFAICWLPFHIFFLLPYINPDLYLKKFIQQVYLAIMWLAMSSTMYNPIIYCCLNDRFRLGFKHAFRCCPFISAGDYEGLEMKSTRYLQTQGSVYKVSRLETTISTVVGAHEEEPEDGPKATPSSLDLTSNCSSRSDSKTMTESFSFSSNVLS

Compound	Ki (human NK1 receptor) [nM]	Ki [1] [nM]
Cc1ccccc1-c1cc(NC[C@H](C)O)ncc1N(C)C(=O)C(C)(C)c1cc(C(F)(F)F)cc(C(F)(F)F)c1 [Example 120, (S)-2-(3,5-Bis-trifluoromethyl-phenyl)-N-[6-(2-hydroxy-propylamino)-4-o-tolyl-pyridin-3-yl]-N-methyl-isobutyramide]	1.38	10
Cc1ccccc1-c1cc(N(CC(C)O)CC(C)O)ncc1N(C)C(=O)C(C)(C)c1cc(C(F)(F)F)cc(C(F)(F)F)c1 (stereo not shown) [Example 121, N-{6-[Bis-(2-hydroxy-propyl)-amino]-4-o-tolyl-pyridin-3-yl}-2-(3,5-bis-trifluoromethyl-phenyl)-N-methyl-isobutyramide]	2.88	11
Cc1ccccc1-c1cc(NC[C@H](O)CO)ncc1N(C)C(=O)C(C)(C)c1cc(C(F)(F)F)cc(C(F)(F)F)c1 [Example 122, (S)-2-(3,5-Bis-trifluoromethyl-phenyl)-N-[6-(2,3-dihydroxy-propylamino)-4-o-tolyl-pyridin-3-yl]-N-methyl-isobutyramide]	1.91	19.5
Cc1ccccc1-c1cc(NC[C@@H](O)CO)ncc1N(C)C(=O)C(C)(C)c1cc(C(F)(F)F)cc(C(F)(F)F)c1 [Example 123, (R)-2-(3,5-Bis-trifluoromethyl-phenyl)-N-[6-(2,3-dihydroxy-propylamino)-4-o-tolyl-pyridin-3-yl]-N-methyl-isobutyramide]	2.51	12.6
CC(O)CN(CC(C)O)c1cc(-c2ccccc2Cl)c(N(C)C(=O)C(C)(C)c2cc(C(F)(F)F)cc(C(F)(F)F)c2)cn1 (stereo not shown) [Example 124, N-[6-[Bis-(2-hydroxy-propyl)-amino]-4-(2-chloro-phenyl)-pyridin-3-yl]-2-(3,5-bis-trifluoromethyl-phenyl)-N-methyl-isobutyramide]	2.63	13.8
CN(C(=O)C(C)(C)c1cc(C(F)(F)F)cc(C(F)(F)F)c1)c1cnc(NC[C@H](O)CO)cc1-c1ccccc1Cl [Example 125, (S)-2-(3,5-Bis-trifluoromethyl-phenyl)-N-[4-(2-chloro-phenyl)-6-(2,3-dihydroxy-propylamino)-pyridin-3-yl]-N-methyl-isobutyramide]	2.82	13.8
CN(C(=O)C(C)(C)c1cc(C(F)(F)F)cc(C(F)(F)F)c1)c1cnc(NC[C@@H](O)CO)cc1-c1ccccc1Cl [Example 126, (R)-2-(3,5-Bis-trifluoromethyl-phenyl)-N-[4-(2-chloro-phenyl)-6-(2,3-dihydroxy-propylamino)-pyridin-3-yl]-N-methyl-isobutyramide]	2.51	7.76
Cc1c(F)cccc1-c1cc(N(CCO)CCO)ncc1N(C)C(=O)C(C)(C)c1cc(C(F)(F)F)cc(C(F)(F)F)c1 [Example 127, N-[6-[Bis-(2-hydroxy-ethyl)-amino]-4-(3-fluoro-2-methyl-phenyl)-pyridin-3-yl]-2-(3,5-bis-trifluoromethyl-phenyl)-N-methyl-isobutyramide]	2.19	1.51
Cc1ccc(F)cc1-c1cc(N(CCO)CCO)ncc1N(C)C(=O)C(C)(C)c1cc(C(F)(F)F)cc(C(F)(F)F)c1 [Example 128, N-[6-[Bis-(2-hydroxy-ethyl)-amino]-4-(5-fluoro-2-methyl-phenyl)-pyridin-3-yl]-2-(3,5-bis-trifluoromethyl-phenyl)-N-methyl-isobutyramide]	2.63	5.62
CN(C(=O)C(C)(C)c1cc(C(F)(F)F)cc(C(F)(F)F)c1)c1cnc(N2C[C@H](O)C[C@H]2CO)cc1-c1ccccc1Br [Example 129, (2S,4R)-2-(3,5-Bis-trifluoromethyl-phenyl)-N-[4-(2-bromo-phenyl)-6-(4-hydroxy-2-hydroxymethyl-pyrrolidin-1-yl)-pyridin-3-yl]-N-methyl-isobutyramide]	0.851	2.63
CN(C(=O)C(C)(C)c1cc(C(F)(F)F)cc(C(F)(F)F)c1)c1cnc(N2CC[C@H](O)[C@H]2CO)cc1-c1ccccc1Br [Example 130, (2R,3S)-2-(3,5-Bis-trifluoromethyl-phenyl)-N-[4-(2-bromo-phenyl)-6-(3-hydroxy-2-hydroxymethyl-pyrrolidin-1-yl)-pyridin-3-yl]-N-methyl-isobutyramide]	1.66	2.29

Other lines, results leading:

Ki (human NK1 receptor) [nM]	Ki [1] [nM]	Compound
1.07	4.27	C[C@H](O)CNc1cc(-c2ccccc2Br)c(N(C)C(=O)C(C)(C)c2cc(C(F)(F)F)cc(C(F)(F)F)c2)cn1 [Example 131, (S)-2-(3,5-Bis-trifluoromethyl-phenyl)-N-[4-(2-bromo-phenyl)-6-(2-hydroxy-propylamino)-pyridin-3-yl]-N-methyl-isobutyramide]
1.32	7.24	CN(C(=O)C(C)(C)c1cc(C(F)(F)F)cc(C(F)(F)F)c1)c1cnc(N[C@H]2CC[C@H](O)CC2)cc1-c1ccccc1Br [Example 132, trans-2-(3,5-Bis-trifluoromethyl-phenyl)-N-[4-(2-bromo-phenyl)-6-(4-hydroxy-cyclohexylamino)-pyridin-3-yl]-N-methyl-isobutyramide]
0.794	2	CC(=O)N[C@H]1CCN(c2cc(-c3ccccc3Br)c(N(C)C(=O)C(C)(C)c3cc(C(F)(F)F)cc(C(F)(F)F)c3)cn2)C1 [Example 133, (S)-N-[6-(3-Acetylamino-pyrrolidin-1-yl)-4-(2-bromo-phenyl)-pyridin-3-yl]-2-(3,5-bis-trifluoromethyl-phenyl)-N-methyl-isobutyramide]
2.24	2.19	CN(C(=O)C(C)(C)c1cc(C(F)(F)F)cc(C(F)(F)F)c1)c1cnc(N(CCO)CCO)cc1-c1ccccc1Br [Example 134, N-[6-[Bis-(2-hydroxy-ethyl)-amino]-4-(2-bromo-phenyl)-pyridin-3-yl]-2-(3,5-bis-trifluoromethyl-phenyl)-N-methyl-isobutyramide]
4.27	31.6	CN(C(=O)C(C)(C)c1cc(C(F)(F)F)cc(C(F)(F)F)c1)c1cnc(N2C[C@H](O)C[C@H]2CO)cc1-c1ccc(Cl)c(Cl)c1 [Example 135, (2S,4R)-2-(3,5-Bis-trifluoromethyl-phenyl)-N-[4-(3,4-dichloro-phenyl)-6-(4-hydroxy-2-hydroxymethyl-pyrrolidin-1-yl)-pyridin-3-yl]-N-methyl-isobutyramide]
1.62	1.45	CN(C(=O)C(C)(C)c1cc(C(F)(F)F)cc(C(F)(F)F)c1)c1cnc(N2C[C@H](O)C[C@H]2CO)cc1-c1ccc(Cl)cc1Cl [Example 136, (2S,4R)-2-(3,5-Bis-trifluoromethyl-phenyl)-N-[4-(2,4-dichloro-phenyl)-6-(4-hydroxy-2-hydroxymethyl-pyrrolidin-1-yl)-pyridin-3-yl]-N-methyl-isobutyramide]
2.82	1.35	CN(C(=O)C(C)(C)c1cc(C(F)(F)F)cc(C(F)(F)F)c1)c1cnc(N2CC[C@H](O)[C@H]2CO)cc1-c1ccc(Cl)cc1Cl [Example 137, (2R,3S)-2-(3,5-Bis-trifluoromethyl-phenyl)-N-[4-(2,4-dichloro-phenyl)-6-(3-hydroxy-2-hydroxymethyl-pyrrolidin-1-yl)-pyridin-3-yl]-N-methyl-isobutyramide]
1.66	1	CN(C(=O)C(C)(C)c1cc(C(F)(F)F)cc(C(F)(F)F)c1)c1cnc(N2CC[C@H](O)[C@H]2CO)cc1-c1ccccc1Cl [Example 138, (2R,3S)-2-(3,5-Bis-trifluoromethyl-phenyl)-N-[4-(2-chloro-phenyl)-6-(3-hydroxy-2-hydroxymethyl-pyrrolidin-1-yl)-pyridin-3-yl]-N-methyl-isobutyramide]
1.29	2.57	Cc1cc(F)ccc1-c1cc(NC(CO)CO)ncc1N(C)C(=O)C(C)(C)c1cc(C(F)(F)F)cc(C(F)(F)F)c1 [Example 142, 2-(3,5-bis-trifluoromethyl-phenyl)-N-[4-(4-fluoro-2-methyl-phenyl)-6-(2-hydroxy-1-hydroxymethyl-ethylamino)-pyridin-3-yl]-N-methyl-isobutyramide]
3.02	3.63	Cc1ccccc1-c1cc(NC(CO)CO)ncc1N(C)C(=O)C(C)(C)c1cc(C(F)(F)F)cc(C(F)(F)F)c1 [Example 143, 2-(3,5-Bis-trifluoromethyl-phenyl)-N-[6-(2-hydroxy-1-hydroxymethyl-ethylamino)-4-o-tolyl-pyridin-3-yl]-N-methyl-isobutyramide]
3.63	1.2	C[C@@H](O)[C@@H](CO)Nc1cc(-c2ccccc2Cl)c(N(C)C(=O)C(C)(C)c2cc(C(F)(F)F)cc(C(F)(F)F)c2)cn1 [Example 144, (1R,2R)-2-(3,5-Bis-trifluoromethyl-phenyl)-N-[4-(2-chloro-phenyl)-6-(2-hydroxy-1-hydroxymethyl-propylamino)-pyridin-3-yl]-N-methyl-isobutyramide]
0.832	7.94	C[C@H](O)[C@@H](CO)Nc1cc(-c2ccccc2Cl)c(N(C)C(=O)C(C)(C)c2cc(C(F)(F)F)cc(C(F)(F)F)c2)cn1 [Example 145, (1R,2S)-2-(3,5-Bis-trifluoromethyl-phenyl)-N-[4-(2-chloro-phenyl)-6-(2-hydroxy-1-hydroxymethyl-propylamino)-pyridin-3-yl]-N-methyl-isobutyramide]
